Results from ChEMBL document CHEMBL4346718, “Cucurbitacins inspired organic synthesis: Potential dual inhibitors targeting EGFR - MAPK pathway” (Eur J Med Chem, 2019).
Each block holds one compound with its values, some of them ahead of it. Calls of active or inactive are those of the source. The rule behind the calls is not given here.

How the values were obtained:
[1] = tested on: HepG2; assay: Antiproliferative activity against human HepG2 cells assessed as reduction in cell growth incubated for 48 hrs by MTT assay; assay type: functional, cell-based; settings: HepG2, 48 h
[2] = tested on: HepG2; assay: Inhibition of cell migration in human HepG2 cells at IC50 incubated for 48 hrs by phase contrast microscopy; assay type: functional
[3] = tested on: HepG2; assay: Inhibition of EGFR/MAPK signalling pathway in human HepG2 cells assessed as reduction in phosphorylation of EGFR at 3 uM incubated for 48 hrs by Western blot analysis; assay type: cell-based
[4] = tested on: HepG2; assay: Inhibition of EGFR/MAPK signalling pathway in human HepG2 cells assessed as reduction in phosphorylation of B-RAF at 3 uM incubated for 24 hrs by Western blot analysis; assay type: cell-based
[5] = tested on: HepG2; assay: Inhibition of EGFR/MAPK signalling pathway in human HepG2 cells assessed as reduction in phosphorylation of ERK 1/2 at 3 uM incubated up to 48 hrs by Western blot analysis; assay type: cell-based
[6] = tested on: HepG2; assay: Inhibition of EGFR/MAPK signalling pathway in human HepG2 cells assessed as reduction in phosphorylation of MEK at 3 uM incubated up to 48 hrs by Western blot analysis; assay type: cell-based
[7] = tested on: HepG2; assay: Induction of cell cycle arrest in human HepG2 cells assessed as accumulation at G1 phase at 1 uM incubated for 24 hrs by flow cytometry analysis (reference value: 32.3%); assay type: functional
[8] = tested on: HepG2; assay: Induction of cell cycle arrest in human HepG2 cells assessed as accumulation at S phase at 1 uM incubated for 24 hrs by flow cytometry analysis (reference value: 26.1%); assay type: functional
[9] = tested on: HepG2; assay: Induction of cell cycle arrest in human HepG2 cells assessed as accumulation at G2 phase at 1 uM incubated for 24 hrs by flow cytometry analysis (reference value: 37.5%); assay type: functional
[10] = tested on: HepG2; assay: Induction of cell cycle arrest in human HepG2 cells assessed as accumulation at G1 phase at 2 uM incubated for 24 hrs by flow cytometry analysis (reference value: 32.3%); assay type: functional
[11] = tested on: HepG2; assay: Induction of cell cycle arrest in human HepG2 cells assessed as accumulation at S phase at 2 uM incubated for 24 hrs by flow cytometry analysis (reference value: 26.1%); assay type: functional
[12] = tested on: HepG2; assay: Induction of cell cycle arrest in human HepG2 cells assessed as accumulation at G2 phase at 2 uM incubated for 24 hrs by flow cytometry analysis (reference value: 37.5%); assay type: functional
[13] = tested on: HepG2; assay: Induction of cell cycle arrest in human HepG2 cells assessed as accumulation at G1 phase at 4 uM incubated for 24 hrs by flow cytometry analysis (reference value: 32.3%); assay type: functional
[14] = tested on: HepG2; assay: Induction of cell cycle arrest in human HepG2 cells assessed as accumulation at S phase at 4 uM incubated for 24 hrs by flow cytometry analysis (reference value: 26.1%); assay type: functional
[15] = tested on: HepG2; assay: Induction of cell cycle arrest in human HepG2 cells assessed as accumulation at G2 phase at 4 uM incubated for 24 hrs by flow cytometry analysis (reference value: 37.5%); assay type: functional
[16] = tested on: HepG2; assay: Inhibition of EGFR/MAPK signalling pathway in human HepG2 cells assessed as reduction in ELK phosphorylation incubated for 24 hrs by Western blot analysis; assay type: cell-based
[17] = tested on: HepG2; assay: Induction of apoptosis in human HepG2 cells assessed as increase in cleaved caspase-3 level at 2 uM incubated for 48 hrs by Western blot analysis; assay type: functional, cell-based
[18] = tested on: HepG2; assay: Induction of apoptosis in human HepG2 cells assessed as increase in cleaved caspase-9 level at 2 uM incubated for 48 hrs by Western blot analysis; assay type: functional, cell-based
[19] = tested on: HepG2; assay: Induction of apoptosis in human HepG2 cells assessed as increase in cleaved PARP-1 level at 2 uM incubated for 48 hrs by Western blot analysis; assay type: functional, cell-based
[20] = tested on: HepG2; assay: Inhibition of EGFR/MAPK signalling pathway in human HepG2 cells assessed as reduction in phosphorylation of MEK at 2 uM incubated up to 48 hrs by Western blot analysis; assay type: cell-based
[21] = tested on: HepG2; assay: Inhibition of EGFR/MAPK signalling pathway in human HepG2 cells assessed as reduction in phosphorylation of ERK 1/2 at 2 uM incubated up to 48 hrs by Western blot analysis; assay type: cell-based
[22] = tested on: HepG2; assay: Inhibition of EGFR/MAPK signalling pathway in human HepG2 cells assessed as reduction in phosphorylation of EGFR at 2 uM incubated for 2 hrs by Western blot analysis; assay type: cell-based
[23] = tested on: HepG2; assay: Inhibition of EGFR/MAPK signalling pathway in human HepG2 cells assessed as reduction in phosphorylation of B-RAF at 2 uM incubated for 8 hrs by Western blot analysis; assay type: cell-based

- IC50 [1]: 3 µM
Compound: COc1ccc2c(c1)CC[C@@H]1[C@@H]2CC[C@]2(C)C([C@](C)(O)C(=O)/C=C/c3ccc(C(F)(F)F)cc3)=CC[C@@H]12

- IC50 [1]: 2 µM
Compound: COc1ccc(/C=C/C(=O)[C@](C)(O)C2=CC[C@H]3[C@@H]4CCc5cc(OC)ccc5[C@H]4CC[C@]23C)cc1

- IC50 [1]: 7 µM
Compound: COc1ccc2c(c1)CC[C@@H]1[C@@H]2CC[C@]2(C)C([C@@](C)(O)C(=O)/C=C/c3ccc(F)cc3)=CC[C@@H]12

- IC50 [1]: 11 µM
Compound: COc1ccc2c(c1)CC[C@@H]1[C@@H]2CC[C@]2(C)C([C@](C)(O)C(=O)/C=C/c3ccc(Br)s3)=CC[C@@H]12

- IC50 [1]: 2 µM
Compound: COc1ccc2c(c1)CC[C@@H]1[C@@H]2CC[C@]2(C)C([C@@](C)(O)C(=O)/C=C/C(C)(C)O)=CC[C@@H]12
- inhibition (INH) [2]: 100%
- inhibition [3]: 90%
- inhibition [4]: Active
- inhibition [5]: Active
- inhibition [6]: Active
- Activity [7]: 36.1%
- Activity [8]: 23.4%
- Activity [9]: 38%
- Activity [10]: 37.6%
- Activity [11]: 23.2%
- Activity [12]: 34.1%
- Activity [13]: 41.1%
- Activity [14]: 37.4%
- Activity [15]: 21.1%
- inhibition [16]: Active
- Activity [17]: Active
- Activity [18]: Active
- Activity [19]: Active

- IC50 [1]: 20 µM
Compound: COc1ccc2c(c1)CC[C@@H]1[C@@H]2CC[C@]2(C)C([C@@](C)(O)C(=O)/C=C/c3ccc([N+](=O)[O-])cc3)=CC[C@@H]12

- IC50 [1]: 32 µM
Compound: COc1ccc2c(c1)CC[C@@H]1[C@@H]2CC[C@]2(C)C([C@@](C)(O)C(=O)/C=C/c3ccc(Br)cc3)=CC[C@@H]12

- IC50 [1]: 29 µM
Compound: COc1ccc2c(c1)CC[C@@H]1[C@@H]2CC[C@]2(C)C([C@](C)(O)C(=O)/C=C/c3ccc([N+](=O)[O-])cc3)=CC[C@@H]12

- IC50 [1]: 2 µM
Compound: COc1ccc2c(c1)CC[C@@H]1[C@@H]2CC[C@]2(C)C([C@@](C)(O)C(=O)/C=C/c3ccc(C(F)(F)F)cc3)=CC[C@@H]12

- IC50 [1]: 16 µM
Compound: COc1ccc(/C=C/C(=O)[C@@](C)(O)C2=CC[C@H]3[C@@H]4CCc5cc(OC)ccc5[C@H]4CC[C@]23C)cc1

- IC50 [1]: 25 µM
Compound: COc1ccc2c(c1)CC[C@@H]1[C@@H]2CC[C@]2(C)C([C@@](C)(O)C(=O)/C=C/c3ccc(Cl)cc3)=CC[C@@H]12

- IC50 [1]: 0.7 µM
Compound: COc1ccc2c(c1)CC[C@@H]1[C@@H]2CC[C@]2(C)C([C@@](C)(O)C(=O)/C=C/c3ccc(Br)s3)=CC[C@@H]12

- IC50 [1]: 6 µM
Compound: COc1ccc2c(c1)CC[C@@H]1[C@@H]2CC[C@]2(C)C([C@@](C)(O)C(=O)/C=C/c3ccc(Br)o3)=CC[C@@H]12

- IC50 [1]: 3 µM
Compound: COc1ccc2c(c1)CC[C@@H]1[C@@H]2CC[C@]2(C)C([C@](C)(O)C(=O)/C=C/C(C)(C)O)=CC[C@@H]12
- inhibition [20]: Active
- inhibition [21]: Active
- inhibition [2]: Active
- inhibition [22]: Active
- inhibition [23]: Active

Compound: C#Cc1cccc(Nc2ncnc3cc(OCCOC)c(OCCOC)cc23)c1 [ERLOTINIB]
- inhibition (INH) [2]: 93%

- IC50 [1]: 8 µM
Compound: COc1ccc2c(c1)CC[C@@H]1[C@@H]2CC[C@]2(C)C([C@](C)(O)C(=O)/C=C/c3ccc(F)cc3)=CC[C@@H]12
